In publication PMC1888807 (2007):

Assays:
[1] = tested on: H78 (DNA, G4) TTAGGGTTAGGGTTAGGGTTAGGGTTAGGGTTAGGGTTAGGGTTAGGGTTAGGGTTAGGGTTAGGGTTAGGGTTAGGG; test: melting; settings: 150 mM Na+; 10 mM Tris-HCl pH 7.5; BMVC:H78 molar ratio 10; ~51 to ~68 °C
[2] = tested on: H24 (DNA, G4) TTAGGGTTAGGGTTAGGGTTAGGG; test: CD melting at 295 nm; settings: 150 mM Na+; 10 mM Tris-HCl pH 7.5; BMVC:H24 molar ratio 5

- melting temperature increase [1]: ~ 17 °C
- melting temperature increase [2]: 18 °C
Compound: C[n+]1ccc(C=Cc2ccc3[nH]c4ccc(C=Cc5cc[n+](C)cc5)cc4c3c2)cc1
